Reference: ChEMBL document CHEMBL1150831, “Immunosuppressive sesquiterpene alkaloids from Tripterygium wilfordii” (2001)
Active and inactive are the calls of the source. The calls are words filed in the database; no cut-off is given here.

Experiments:
Assay type in all cases: functional
PBMC [1] = test: Immunosuppressive activity in human PBMC assessed as inhibition of LPS-stimulated TNFalpha production at 0.3 ug/mL after 18 to 24 hrs by ELISA
PBMC [2] = test: Immunosuppressive activity in human PBMC assessed as inhibition of LPS-stimulated IL1-beta production at 0.3 ug/mL after 18 to 24 hrs by ELISA
PBMC [3] = test: Immunosuppressive activity in human PBMC assessed as inhibition of LPS-stimulated IL2 production at 0.3 ug/mL after 18 to 24 hrs by ELISA
PBMC [4] = test: Immunosuppressive activity in human PBMC assessed as inhibition of LPS-stimulated IL4 production at 0.3 ug/mL after 18 to 24 hrs by ELISA
PBMC [5] = test: Immunosuppressive activity in human PBMC assessed as inhibition of LPS-stimulated IL8 production at 0.3 ug/mL after 18 to 24 hrs by ELISA
PBMC [6] = test: Immunosuppressive activity in human PBMC assessed as inhibition of LPS-stimulated IFN-gamma production at 0.3 ug/mL after 18 to 24 hrs by ELISA
PBMC [7] = test: Immunosuppressive activity in human PBMC assessed as inhibition of LPS-stimulated IL4 production at 10 ug/mL after 18 to 24 hrs by ELISA
PBMC [8] = test: Immunosuppressive activity in human PBMC assessed as inhibition of LPS-stimulated IL1-beta production at 10 ug/mL after 18 to 24 hrs by ELISA
PBMC [9] = test: Immunosuppressive activity in human PBMC assessed as inhibition of LPS-stimulated TNFalpha production at 10 ug/mL after 18 to 24 hrs by ELISA
PBMC [10] = test: Immunosuppressive activity in human PBMC assessed as inhibition of LPS-stimulated IL8 production at 10 ug/mL after 18 to 24 hrs by ELISA
PBMC [11] = test: Immunosuppressive activity in human PBMC assessed as inhibition of LPS-stimulated IL2 production at 10 ug/mL after 18 to 24 hrs by ELISA
PBMC [12] = test: Immunosuppressive activity in human PBMC assessed as inhibition of LPS-stimulated IFN-gamma production at 10 ug/mL after 18 to 24 hrs by ELISA

C[C@]12C=CC(=O)C=C1CC[C@@H]1[C@@H]2[C@@H](O)C[C@@]2(C)[C@H]1CC[C@]2(O)C(=O)CO [PREDNISOLONE]
inhibition at 0.3 µg/mL (PBMC [1]): 52% | inhibition at 0.3 µg/mL (PBMC [2]): 68% | inhibition at 0.3 µg/mL (PBMC [3]): 65% | inhibition at 0.3 µg/mL (PBMC [4]): 76% | inhibition at 0.3 µg/mL (PBMC [5]): 15% | inhibition at 0.3 µg/mL (PBMC [6]): 75%

CC(=O)OC[C@]12[C@H](OC(C)=O)[C@H](OC(C)=O)[C@@H]3[C@@H](OC(C)=O)[C@@]14O[C@@]3(C)COC(=O)c1cccnc1CC[C@@](C)(O)C(=O)O[C@@H]([C@H](OC(C)=O)[C@@H]2OC(C)=O)[C@]4(C)O
inhibition (PBMC [7]): inactive | inhibition (PBMC [8]): inactive | inhibition (PBMC [9]): inactive | inhibition (PBMC [10]): inactive | inhibition (PBMC [11]): inactive | inhibition (PBMC [12]): inactive
